Laboratory results published in BindingDB's records for doi:10.1016/j.bmcl.2014.03.017 (Alcon Laboratories, 2014).

Test: Inhibition of ROCK-2 in human GTM3 cells measured up to 2 days by cell impedance assay

| SMILES | EC50 [nM] |
| --- | --- |
| CN(C)CC(O)CN1CCN(c2nc(-c3ccncc3)cnc2N2CCCC2)CC1 (configuration not stated) | 1500 |
| CC(=O)NCC(O)CN1CCN(c2nc(-c3ccncc3)cnc2N2CCCC2)CC1 (configuration not stated) | 1700 |
| CC(=O)NCCCN1CCN(c2nc(-c3ccncc3)cnc2N2CCCC2)CC1 | 760 |

The next compounds have a lower EC50 than those just listed; values first:

| EC50 [nM] | SMILES |
| --- | --- |
| 416 | c1nc(N2CCCC2)c(N2CCCNCC2)nc1-c1cc2cn[nH]c2cn1 |
| 260 | c1cc2[nH]ncc2cc1-c1cncc(N2CCCNCC2)n1 |
| 380 | Cc1n[nH]c2ccc(-c3cncc(N4CCCNCC4)n3)cc12 |
| 680 | OCCN1CCN(c2nc(-c3ccncc3)cnc2N2CCCC2)CC1 [2-(4-(6-(pyridin-4-yl)-3-(pyrrolidin-1-yl)pyrazin-2-yl)piperazin-1-yl)ethanol] |
